1 compound from article PMC12318229, “RACK1A positively regulates opening of the apical hook in Arabidopsis thaliana via suppression of its auxin response gradient” (Proceedings of the National Academy of Sciences of the …, 2025) can be followed below.

The test has as its target T1, RACK1A (RECEPTOR FOR ACTIVATED C KINASE 1A) (Arabidopsis thaliana, UniProt O24456).
T1 construct: WD40 seven-bladed beta-propeller scaffold protein
The test can be described thus: microscale thermophoresis (MST). The class given is binding. Background: Microscale thermophoresis detects binding through changes in fluorescence in a small temperature gradient.

T1 sequence (O24456 whole entry): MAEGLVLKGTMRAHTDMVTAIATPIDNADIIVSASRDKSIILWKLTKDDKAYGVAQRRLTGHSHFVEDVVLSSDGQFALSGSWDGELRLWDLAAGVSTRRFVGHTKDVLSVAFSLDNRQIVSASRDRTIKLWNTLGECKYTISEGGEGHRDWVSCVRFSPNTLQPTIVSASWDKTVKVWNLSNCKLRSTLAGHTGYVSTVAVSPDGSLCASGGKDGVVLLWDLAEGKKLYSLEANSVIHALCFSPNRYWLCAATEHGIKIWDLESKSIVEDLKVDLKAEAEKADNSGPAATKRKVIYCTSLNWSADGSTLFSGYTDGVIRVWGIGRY

A word on the Kd: it is the free concentration of one partner at which half of the binding sites on the other are occupied at equilibrium, for simple one-to-one binding. High values mean weaker binding, low ones tighter binding. In turn, `COc1cc(OC)cc(C(=O)Nc2ccc3ccccc3c2)c1` [DAPIA] returned a Kd of 32.8 ± 15.7 µM.
